Data as given in US8119681B2, “2-[1-phenyl-5-hydroxy or methoxy-4alpha-methyl-hexahydrocyclopenta [ƒ]indazole-5-YL]ethyl phenyl derivatives as glucocorticoid receptor ligands” (Merck Sharp & Dohme Corp., priority 2006, dated 2012).

target: T1, human GR (Homo sapiens, UniProt P04150); experiment: Transrepression Assay (GITAR), TNFα-β-lactamase reporter gene in U937 cells; format: cell-based; design: U937 cells contain an endogenous glucocorticoid receptor (GR); endogenous in cells; host or cells: U937 cells stably transfected with the TNF-α promoter/β-lactamase reporter only; settings: U-937; 100 nM dexamethasone = 100% activity; read-out: maximal activity in the transrepression assay
T1 sequence (P04150 1-777): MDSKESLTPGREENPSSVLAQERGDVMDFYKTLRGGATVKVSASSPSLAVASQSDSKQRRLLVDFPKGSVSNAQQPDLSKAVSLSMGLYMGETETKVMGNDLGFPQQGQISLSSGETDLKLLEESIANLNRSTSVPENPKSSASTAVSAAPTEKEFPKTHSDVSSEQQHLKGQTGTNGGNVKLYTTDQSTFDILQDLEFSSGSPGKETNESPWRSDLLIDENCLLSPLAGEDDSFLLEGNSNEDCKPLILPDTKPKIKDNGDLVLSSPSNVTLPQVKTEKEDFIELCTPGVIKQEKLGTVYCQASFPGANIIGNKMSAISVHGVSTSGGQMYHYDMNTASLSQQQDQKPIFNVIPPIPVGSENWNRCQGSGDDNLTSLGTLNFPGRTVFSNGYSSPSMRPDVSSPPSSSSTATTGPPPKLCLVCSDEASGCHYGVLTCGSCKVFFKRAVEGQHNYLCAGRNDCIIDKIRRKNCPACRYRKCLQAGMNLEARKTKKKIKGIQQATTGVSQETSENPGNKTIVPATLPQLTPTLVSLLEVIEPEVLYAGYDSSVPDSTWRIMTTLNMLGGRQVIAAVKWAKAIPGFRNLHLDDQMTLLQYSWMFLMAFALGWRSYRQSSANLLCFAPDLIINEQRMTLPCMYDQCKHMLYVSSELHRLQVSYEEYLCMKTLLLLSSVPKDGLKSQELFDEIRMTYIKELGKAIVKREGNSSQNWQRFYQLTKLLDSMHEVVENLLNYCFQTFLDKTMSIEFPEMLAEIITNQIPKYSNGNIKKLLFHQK
Method in brief: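 Reporter readout used CCF2-AM loading for 70–90 min at room temperature after overnight (~18 h, 37 °C) PMA (5 ng/ml final) and LPS (100 ng/ml final) stimulation of compound-treated (30–45 min) TNFα-β-lactamase U937 cells expressing native GR. Activity was normalised to 100 nM dexamethasone repression.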

Emax, 5 to 100%:
CCNC(=O)Cc1ccccc1CC[C@]1(O)CCC2=Cc3c(cnn3-c3ccc(F)cc3)C[C@@]21C [Example 106, N-ethyl-2-(2-{2-[(4αS,5R)-1-(4-fluorophenyl)-5-hydroxy-4α-methyl-1,4,4α,5,6,7-hexahydrocyclopenta[f]indazol-5-yl]ethyl}phenyl)acetamide]
CN(C)C(=O)Cc1ccccc1CC[C@]1(O)CCC2=Cc3c(cnn3-c3ccc(F)cc3)C[C@@]21C [Example 108, 2-(2-{2-[(4αS,5R)-1-(4-fluorophenyl)-5-hydroxy-4α-methyl-1,4,4α,5,6,7-hexahydrocyclopenta[f]indazol-5-yl]ethyl}phenyl)-N,N-dimethylacetamide]
C[C@]12Cc3cnn(-c4ccc(F)cc4)c3C=C1CC[C@@]2(O)CCc1ccccc1CC(=O)NC1CC1 [Example 109, N-cyclopropyl-2-(2-{2-[(4αS,5R)-1-(4-fluorophenyl)-5-hydroxy-4α-methyl-1,4,4α,5,6,7-hexahydrocyclopenta[f]indazol-5-yl]ethyl}phenyl)acetamide]
C[C@]12Cc3cnn(-c4ccc(F)cc4)c3C=C1CC[C@@]2(O)CCc1cccc(F)c1N1CCC1=O [Example 110, 1-(2-fluoro-6-{2-[(4αS,5R)-1-(4-fluorophenyl)-5-hydroxy-4α-methyl-1,4,4α,5,6,7-hexahydrocyclopenta[f]indazol-5-yl]ethyl}phenyl)azetidin-2-one]
C[C@]12Cc3cnn(-c4ccc(F)cc4)c3C=C1CC[C@@]2(O)CCc1ccccc1N1CCCC1=O [Example 111, 1-(2-{2-[(4αS,5R)-1-(4-fluorophenyl)-5-hydroxy-4α-methyl-1,4,4α,5,6,7-hexahydrocyclopenta[f]indazol-5-yl]ethyl}phenyl)pyrrolidin-2-one]
C[C@]12Cc3cnn(-c4ccc(F)cc4)c3C=C1CC[C@@]2(O)CCc1cc(F)ccc1N [Example 112, (4αS,5R)-5-[2-(2-amino-5-fluorophenyl)ethyl]-1-(4-fluorophenyl)-4α-methyl-1,4,4α,5,6,7-hexahydrocyclopenta[f]indazol-5-ol]
C[C@]12Cc3cnn(-c4ccc(F)cc4)c3C=C1CC[C@@]2(O)CCc1ccccc1NS(C)(=O)=O [Example 115, N-(2-{2-[(4αS,5R)-1-(4-fluorophenyl)-5-hydroxy-4α-methyl-1,4,4α,5,6,7-hexahydrocyclopenta[f]indazol-5-yl]ethyl}phenyl)methanesulfonamide]
C[C@]12Cc3cnn(-c4ccc(F)cc4)c3C=C1CC[C@@]2(O)CCc1cccc(F)c1NS(=O)(=O)CC(F)(F)F [Example 116, 2,2,2-trifluoro-N-(2-fluoro-6-{2-[(4αS,5R)-1-(4-fluorophenyl)-5-hydroxy-4α-methyl-1,4,4α,5,6,7-hexahydrocyclopenta[f]indazol-5-yl]ethyl}phenyl)ethanesulfonamide]
CN(C)S(=O)(=O)Nc1ccc(F)cc1CC[C@]1(O)CCC2=Cc3c(cnn3-c3ccc(F)cc3)C[C@@]21C [Example 117, N′-(4-fluoro-2-{2-[(4αS,5R)-1-(4-fluorophenyl)-5-hydroxy-4α-methyl-1,4,4α,5,6,7-hexahydrocyclopenta[f]indazol-5-yl]ethyl}phenyl)-N,N-dimethylsulfamide]
C[C@]12Cc3cnn(-c4ccc(F)cc4)c3C=C1CC[C@@]2(O)CCc1ccccc1NS(=O)(=O)CC(F)(F)F [Example 118, 2,2,2-trifluoro-N-(2-{2-[(4αS,5R)-1-(4-fluorophenyl)-5-hydroxy-4α-methyl-1,4,4α,5,6,7-hexahydrocyclopenta[f]indazol-5-yl]ethyl}phenyl)ethanesulfonamide]
C[C@]12Cc3cnn(-c4ccc(F)cc4)c3C=C1CC[C@@]2(O)CCc1cc(F)ccc1NS(=O)(=O)CC(F)(F)F [Example 119, 2,2,2-trifluoro-N-(4-fluoro-2-{2-[(4αS,5R)-1-(4-fluorophenyl)-5-hydroxy-4α-methyl-1,4,4α,5,6,7-hexahydrocyclopenta[f]indazol-5-yl]ethyl}phenyl)ethanesulfonamide]
CC(C)S(=O)(=O)c1ccccc1CC[C@]1(O)CCC2=Cc3c(cnn3-c3ccc(F)cc3)C[C@@]21C [Example 120, (4αS,5R)-1-(4-fluorophenyl)-5-{2-[2-(isopropylsulfonyl)phenyl]ethyl}-4α-methyl-1,4,4α,5,6,7-hexahydrocyclopenta[f]indazol-5-ol]
COC(=O)Nc1ccccc1CC[C@]1(O)CCC2=Cc3c(cnn3-c3ccc(F)cc3)C[C@@]21C [Example 121, methyl (2-{2-[(4αS,5R)-1-(4-fluorophenyl)-5-hydroxy-4α-methyl-1,4,4α,5,6,7-hexahydrocyclopenta[f]indazol-5-yl]ethyl}phenyl)carbamate]
CCOC(=O)Nc1c(F)cccc1CC[C@]1(O)CCC2=Cc3c(cnn3-c3ccc(F)cc3)C[C@@]21C [Example 122, ethyl (2-fluoro-6-{2-[(4αS,5R)-1-(4-fluorophenyl)-5-hydroxy-4α-methyl-1,4,4α,5,6,7-hexahydrocyclopenta[f]indazol-5-yl]ethyl}phenyl)carbamate]
COC(=O)Nc1c(F)cccc1CC[C@]1(O)CCC2=Cc3c(cnn3-c3ccc(F)cc3)C[C@@]21C [Example 123, methyl (2-fluoro-6-{2-[(4αS,5R)-1-(4-fluorophenyl)-5-hydroxy-4α-methyl-1,4,4α,5,6,7-hexahydrocyclopenta[f]indazol-5-yl]ethyl}phenyl)carbamate]
COC(=O)Nc1ccc(F)cc1CC[C@]1(O)CCC2=Cc3c(cnn3-c3ccc(F)cc3)C[C@@]21C [Example 124, methyl (4-fluoro-6-{2-[(4αS,5R)-1-(4-fluorophenyl)-5-hydroxy-4α-methyl-1,4,4α,5,6,7-hexahydrocyclopenta[f]indazol-5-yl]ethyl}phenyl)carbamate]
CCOC(=O)Nc1ccc(F)cc1CC[C@]1(O)CCC2=Cc3c(cnn3-c3ccc(F)cc3)C[C@@]21C [Example 125, ethyl (4-fluoro-2-{2-[(4αS,5R)-1-(4-fluorophenyl)-5-hydroxy-4α-methyl-1,4,4α,5,6,7-hexahydrocyclopenta[f]indazol-5-yl]ethyl}phenyl)carbamate]
C[C@]12Cc3cnn(-c4ccc(F)cc4)c3C=C1CC[C@@]2(O)CCc1cccc(F)c1NC(=O)C(F)(F)F [Example 126, 2,2,2-trifluoro-N-(2-fluoro-6-{2-[(4αS,5R)-1-(4-fluorophenyl)-5-hydroxy-4α-methyl-1,4,4α,5,6,7-hexahydrocyclopenta[f]indazol-5-yl]ethyl}phenyl)acetamide]
C[C@]12Cc3cnn(-c4ccc(F)cc4)c3C=C1CC[C@@]2(O)CCc1ccccc1NC(=O)C(F)(F)F [Example 127, 2,2,2-trifluoro-N-(2-{2-[(4αS,5R)-1-(4-fluorophenyl)-5-hydroxy-4α-methyl-1,4,4α,5,6,7-hexahydrocyclopenta[f]indazol-5-yl]ethyl}phenyl)acetamide]
CC(=O)Nc1c(F)cccc1CC[C@]1(O)CCC2=Cc3c(cnn3-c3ccc(F)cc3)C[C@@]21C [Example 128, N-(2-fluoro-6-{2-[(4αS,5R)-1-(4-fluorophenyl)-5-hydroxy-4α-methyl-1,4,4α,5,6,7-hexahydrocyclopenta[f]indazol-5-yl]ethyl}phenyl)acetamide]
CC(C)NC(=O)Nc1ccccc1CC[C@]1(O)CCC2=Cc3c(cnn3-c3ccc(F)cc3)C[C@@]21C [Example 129, N-(2-{2-[(4αS,5R)-1-(4-fluorophenyl)-5-hydroxy-4α-methyl-1,4,4α,5,6,7-hexahydrocyclopenta[f]indazol-5-yl]ethyl}phenyl)-N′-isopropylurea]
CC(C)NC(=O)Nc1c(F)cccc1CC[C@]1(O)CCC2=Cc3c(cnn3-c3ccc(F)cc3)C[C@@]21C [Example 130, N-(2-fluoro-6-{2-[(4αS,5R)-1-(4-fluorophenyl)-5-hydroxy-4α-methyl-1,4,4α,5,6,7-hexahydrocyclopenta[f]indazol-5-yl]ethyl}phenyl)-N′-isopropylurea]
CCNC(=O)Nc1ccc(F)cc1CC[C@]1(O)CCC2=Cc3c(cnn3-c3ccc(F)cc3)C[C@@]21C [Example 131, N-ethyl-N′-(4-fluoro-2-{2-[(4αS,5R)-1-(4-fluorophenyl)-5-hydroxy-4α-methyl-1,4,4α,5,6,7-hexahydrocyclopenta[f]indazol-5-yl]ethyl}phenyl)urea]
